For experiment [1], the system named is S. mutans. Nature of the experiment: Minimum inhibitory and minimum bactericidal concentrations against S. mutans grown in a typical culture medium. In kind it is cell-based. The following applies: Streptococcus mutans; for MBC: read-out: MBC (minimum bactericidal concentration); for MIC: read-out: MIC (minimum inhibitory concentration).
Experiment [2] concerns S. mutans. The experiment can be described thus: Acid inhibition (AI): 0.1 normal NaOH needed to neutralize acid produced by S. mutans from sucrose after 48 hours. In kind it is cell-based. Conditions: trypticase-yeast medium containing sucrose, 48 hours incubation. Here is the method:
Acid inhibition (AI) is a measure of acid production when S. mutans attacks sucrose to form pyruvic and lactic acids. The organism is added to a culture medium (trypticase-yeast) containing sucrose, and after 48 hours incubation, the quantity of 0.1 normal NaOH (in ml) needed to neutralize the acid is measured.

Experiment [3] relates to S. mutans. The experiment can be described thus: Plaque inhibition in the hamster (S. mutans infected). Conditions: Test 2; mean scoring value (approximate percentage of surface); 28 days, 0.3% Methocel suspension, 200 μl per treatment; Methocel control 13.96 ± 1.49; significantly different from control at p ≤ 0.01. In kind it is in vivo, Golden Syrian hamsters. Here is the method: Representative thiouronium phosphonates were tested against hamsters as in vivo subjects, as follows.
Golden Syrian hamsters (3-4 wks of age), obtained from GIBCO Animal Resources Laboratories, Madison, Wis. were used in all studies. Upon receipt, the animals were randomly distributed into cages of three animals of the same sex per cage. Experimental groups consisted of twelve animals, six males and six females. Food (Diet 2000, General Biochemicals Co.) and deionized water were allowed ad libitum. Food consumption was monitored three times a week while animal weights were checked twice a week.
After an acclimation period of 10 days, the oral cavities of the hamsters were infected with a cariogenic strain of S. mutans (ATCC 10449, SR 500). This was accomplished by injecting […] of a 24 hr. culture grown static in Todd-Hewitt broth (supplemented with 0.5% lactalbumin hydrolysate) into their mouths, and by adding 2 ml/100 ml of the culture to their drinking water. This was repeated daily for four days. On the fifth day, fresh water was given to the hamsters.
To insure that the organism had actually implanted, the oral cavity of each hamster was swabbed on the sixth day. […]
After all data had been recorded, the codes were broken, the data re-grouped and the various treatment groups compared by a non-parametric one-way analysis of variance.

The mark [4] stands for this setting: against S. mutans grown in a typical culture medium.

Molecules are shown by their SMILES. Values after ≈ are worked out from the molar mass of the structure shown. Read-outs that look alike come from different tables or passages of the source.

With `CCCCCCCCCCSC(=N)N` [n=10, R=C6 H5, n-Decyl thiouronium phenylphosphonate], in experiment [1] (setting [4]), the MBC stood at 3.9 µg/mL (≈ 18 µM) and the MIC is 2 µg/mL (≈ 9.24 µM). For the same compound, the “AI (acid inhibition; amount of 0.1 normal NaOH required)” value in experiment [2] was determined as 1.25 mL.

With `CCCCCCCCCCCCCCSC(=N)N` [n=14, R=CH3, n-Tetradecyl thiouronium methanephosphonate], in experiment [1], the MBC came to 7.8 µg/mL (≈ 28.6 µM) and the MIC was 1 µg/mL (≈ 3.67 µM). Besides, the “AI (acid inhibition; amount of 0.1 normal NaOH required)” value in experiment [2] was determined as 0.5 mL.

In the case of `CCCCCCCCCCCSC(=N)N` [n=11, R=C6 H5], in experiment [1] (setting [4]), the MBC was 2 µg/mL (≈ 8.68 µM) and the MIC amounted to 1 µg/mL (≈ 4.34 µM). In addition, in experiment [2], the “AI (acid inhibition; amount of 0.1 normal NaOH required)” value is 0.5 mL.

In the case of `CCCCCCCCCCCCCSC(=N)N` [n=13, R=C6 H5, Tridecyl thiouronium phenylphosphonate], in experiment [3], the “Molar Surface Covered with Plaque” value came out at 7.06 ± 1.16. In addition, in experiment [1] (setting [4]), the MBC worked out at 2 µg/mL (≈ 7.74 µM) and the MIC worked out at 1 µg/mL (≈ 3.87 µM). The “AI (acid inhibition; amount of 0.1 normal NaOH required)” value in experiment [2] came to 0.3 mL.

Values taken from patent US4435381A, “Thiouronium phosphonates for use in dental treatments” (priority 1983, dated 1984).
